# From paper PMC4385830, “Group I Paks as therapeutic targets in NF2-deficient meningioma” (Oncotarget, 2015)
# Columns and labels:
# Assay in all cases: Kinase selectivity, Z'-LYTE
# Type in all cases: biochemical
# ABL1 = target: T1, ABL1 (Homo sapiens, UniProt P00519)
# T1 construct: purchased Invitrogen (Life Technologies) SelectScreen Z'-LYTE
# Method: (§1) Kinase selectivity was assessed using a commercial service that employs a fluorescence-based, coupled-enzyme assay based on the differential sensitivity of phosphorylated and non-phosphorylated peptides to proteolytic cleavage (Invitrogen, Z'-LYTE®). This assay uses recombinant protein kinases and assay mixed optimized for each particular kinase (http://www.lifetechnologies.com/us/en/home/life-science/drug-discovery/target-and-lead-identification-and-validation /kinasebiology/kinase-activity-assays/z-lyte.html).
# PAK7 (KIAA 1264) = target: T2, PAK7 (KIAA 1264) (Homo sapiens, UniProt Q9P286)
# T2 construct: purchased Invitrogen (Life Technologies) SelectScreen Z'-LYTE
# Method: as §1
# PDGFRB (PDGFR beta) = target: T3, PDGFRB (PDGFR beta) (Homo sapiens, UniProt P09619)
# T3 construct: purchased Invitrogen (Life Technologies) SelectScreen Z'-LYTE
# Method: as §1
# PRKACA (PKA) = target: T4, PRKACA (PKA) (Homo sapiens, UniProt P17612)
# T4 construct: purchased Invitrogen (Life Technologies) SelectScreen Z'-LYTE
# Method: as §1
# MAPK8 (JNK1) = target: T5, MAPK8 (JNK1) (Homo sapiens, UniProt P45983)
# T5 construct: purchased Invitrogen (Life Technologies) SelectScreen Z'-LYTE
# Method: as §1
# CSNK1G2 (CK1 gamma 2) = target: T6, CSNK1G2 (CK1 gamma 2) (Homo sapiens, UniProt P78368)
# T6 construct: purchased Invitrogen (Life Technologies) SelectScreen Z'-LYTE
# Method: as §1
# CHEK2 (CHK2) = target: T7, CHEK2 (CHK2) (Homo sapiens, UniProt O96017)
# T7 construct: purchased Invitrogen (Life Technologies) SelectScreen Z'-LYTE
# Method: as §1
# INSR = target: T8, INSR (Homo sapiens, UniProt P06213)
# T8 construct: purchased Invitrogen (Life Technologies) SelectScreen Z'-LYTE
# Method: as §1
# SYK = target: T9, SYK (Homo sapiens, UniProt P43405)
# T9 construct: purchased Invitrogen (Life Technologies) SelectScreen Z'-LYTE
# Method: as §1
# MET (cMet) = target: T10, MET (cMet) (Homo sapiens, UniProt P08581)
# T10 construct: purchased Invitrogen (Life Technologies) SelectScreen Z'-LYTE
# Method: as §1
# PAK6 = target: T11, PAK6 (Homo sapiens, UniProt Q9NQU5)
# T11 construct: purchased Invitrogen (Life Technologies) SelectScreen Z'-LYTE
# Method: as §1
# P1K3CA (p110 gamma) = target: T12, P1K3CA (p110 gamma) (Homo sapiens, UniProt P48736)
# T12 construct: purchased Invitrogen (Life Technologies) SelectScreen Z'-LYTE
# Method: as §1
# SPHK1 = target: T13, SPHK1 (Homo sapiens, UniProt Q9NYA1)
# T13 construct: purchased Invitrogen (Life Technologies) SelectScreen Z'-LYTE
# Method: as §1
# MAP2K1 (MEK1) = target: T14, MAP2K1 (MEK1) (Homo sapiens, UniProt Q02750)
# T14 construct: purchased Invitrogen (Life Technologies) SelectScreen Z'-LYTE
# Method: as §1
# JAK3 = target: T15, JAK3 (Homo sapiens, UniProt P52333)
# T15 construct: purchased Invitrogen (Life Technologies) SelectScreen Z'-LYTE
# T15 sequence (P52333 1-1124): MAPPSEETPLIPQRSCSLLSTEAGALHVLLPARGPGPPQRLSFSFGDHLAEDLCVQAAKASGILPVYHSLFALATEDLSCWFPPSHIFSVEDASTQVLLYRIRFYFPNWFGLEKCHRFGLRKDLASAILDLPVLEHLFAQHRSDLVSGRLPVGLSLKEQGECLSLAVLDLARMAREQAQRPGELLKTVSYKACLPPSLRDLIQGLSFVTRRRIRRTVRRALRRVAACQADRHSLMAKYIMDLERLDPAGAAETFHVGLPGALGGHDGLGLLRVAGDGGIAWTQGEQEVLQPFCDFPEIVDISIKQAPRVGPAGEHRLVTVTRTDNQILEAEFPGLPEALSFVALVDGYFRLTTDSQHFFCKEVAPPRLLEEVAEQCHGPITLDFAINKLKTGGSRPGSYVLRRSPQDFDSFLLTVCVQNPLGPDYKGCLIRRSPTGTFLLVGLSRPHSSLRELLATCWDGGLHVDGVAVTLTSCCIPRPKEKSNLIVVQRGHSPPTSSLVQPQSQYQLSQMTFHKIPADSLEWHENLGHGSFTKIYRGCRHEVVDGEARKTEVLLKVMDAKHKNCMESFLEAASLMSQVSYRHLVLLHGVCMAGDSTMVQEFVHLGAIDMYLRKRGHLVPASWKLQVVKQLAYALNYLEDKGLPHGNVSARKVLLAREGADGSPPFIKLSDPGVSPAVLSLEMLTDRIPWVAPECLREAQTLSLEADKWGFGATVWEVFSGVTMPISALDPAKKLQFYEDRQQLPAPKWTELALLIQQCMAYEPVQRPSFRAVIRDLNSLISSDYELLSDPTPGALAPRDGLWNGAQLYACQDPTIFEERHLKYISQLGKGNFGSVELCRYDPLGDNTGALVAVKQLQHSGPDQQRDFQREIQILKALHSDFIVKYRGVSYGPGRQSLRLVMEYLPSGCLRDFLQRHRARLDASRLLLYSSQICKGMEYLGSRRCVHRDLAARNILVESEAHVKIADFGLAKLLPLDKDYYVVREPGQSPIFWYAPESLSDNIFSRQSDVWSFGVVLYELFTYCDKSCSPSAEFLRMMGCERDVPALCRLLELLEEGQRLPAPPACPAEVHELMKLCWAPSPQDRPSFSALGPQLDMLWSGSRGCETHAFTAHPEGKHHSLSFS
# Method: as §1
# FRAP1 (mTOR) = target: T16, FRAP1 (mTOR) (Homo sapiens, UniProt P42345)
# T16 construct: purchased Invitrogen (Life Technologies) SelectScreen Z'-LYTE
# Method: as §1
# PTK1 (FAK) = target: T17, PTK1 (FAK) (Homo sapiens, UniProt Q05397)
# T17 construct: purchased Invitrogen (Life Technologies) SelectScreen Z'-LYTE
# Method: as §1
# Pak4 = target: T18, Pak4 (Homo sapiens, UniProt O96013)
# T18 construct: purchased Invitrogen (Life Technologies) SelectScreen Z'-LYTE
# Method: as §1
# G3K3B (G3K3 beta) = target: T19, G3K3B (G3K3 beta) (Homo sapiens, UniProt P49841)
# T19 construct: purchased Invitrogen (Life Technologies) SelectScreen Z'-LYTE
# Method: as §1
# FGFR4 = target: T20, FGFR4 (Homo sapiens, UniProt P22455)
# T20 construct: purchased Invitrogen (Life Technologies) SelectScreen Z'-LYTE
# Method: as §1
# T1 sequence (P00519 whole entry): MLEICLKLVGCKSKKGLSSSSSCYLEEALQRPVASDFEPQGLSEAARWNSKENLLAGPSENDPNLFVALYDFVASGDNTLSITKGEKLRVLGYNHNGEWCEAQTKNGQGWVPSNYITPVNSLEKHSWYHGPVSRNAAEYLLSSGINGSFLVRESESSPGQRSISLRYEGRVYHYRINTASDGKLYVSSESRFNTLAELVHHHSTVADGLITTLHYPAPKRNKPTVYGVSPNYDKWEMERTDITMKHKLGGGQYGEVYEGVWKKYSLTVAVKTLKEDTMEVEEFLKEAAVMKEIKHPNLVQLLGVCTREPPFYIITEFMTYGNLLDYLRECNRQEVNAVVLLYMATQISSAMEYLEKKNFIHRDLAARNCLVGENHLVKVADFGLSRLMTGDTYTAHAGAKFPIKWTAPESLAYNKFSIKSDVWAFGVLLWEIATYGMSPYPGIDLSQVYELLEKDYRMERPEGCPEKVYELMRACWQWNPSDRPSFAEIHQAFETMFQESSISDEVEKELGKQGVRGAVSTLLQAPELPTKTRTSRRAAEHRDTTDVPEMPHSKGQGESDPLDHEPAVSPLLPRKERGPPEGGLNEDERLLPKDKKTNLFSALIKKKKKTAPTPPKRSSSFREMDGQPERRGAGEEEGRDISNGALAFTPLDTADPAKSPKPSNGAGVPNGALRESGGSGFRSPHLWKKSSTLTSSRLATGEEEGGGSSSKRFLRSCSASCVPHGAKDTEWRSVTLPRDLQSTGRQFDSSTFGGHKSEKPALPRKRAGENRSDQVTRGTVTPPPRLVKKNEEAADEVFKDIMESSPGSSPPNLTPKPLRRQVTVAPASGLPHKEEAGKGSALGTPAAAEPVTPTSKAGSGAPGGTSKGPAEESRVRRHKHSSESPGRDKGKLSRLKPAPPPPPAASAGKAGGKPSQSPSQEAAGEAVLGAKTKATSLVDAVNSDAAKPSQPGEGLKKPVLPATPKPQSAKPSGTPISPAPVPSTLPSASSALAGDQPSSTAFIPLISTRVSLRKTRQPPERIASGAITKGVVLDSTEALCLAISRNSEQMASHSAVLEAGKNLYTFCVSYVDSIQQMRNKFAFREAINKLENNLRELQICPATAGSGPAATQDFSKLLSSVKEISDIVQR
# T11 sequence (Q9NQU5 whole entry): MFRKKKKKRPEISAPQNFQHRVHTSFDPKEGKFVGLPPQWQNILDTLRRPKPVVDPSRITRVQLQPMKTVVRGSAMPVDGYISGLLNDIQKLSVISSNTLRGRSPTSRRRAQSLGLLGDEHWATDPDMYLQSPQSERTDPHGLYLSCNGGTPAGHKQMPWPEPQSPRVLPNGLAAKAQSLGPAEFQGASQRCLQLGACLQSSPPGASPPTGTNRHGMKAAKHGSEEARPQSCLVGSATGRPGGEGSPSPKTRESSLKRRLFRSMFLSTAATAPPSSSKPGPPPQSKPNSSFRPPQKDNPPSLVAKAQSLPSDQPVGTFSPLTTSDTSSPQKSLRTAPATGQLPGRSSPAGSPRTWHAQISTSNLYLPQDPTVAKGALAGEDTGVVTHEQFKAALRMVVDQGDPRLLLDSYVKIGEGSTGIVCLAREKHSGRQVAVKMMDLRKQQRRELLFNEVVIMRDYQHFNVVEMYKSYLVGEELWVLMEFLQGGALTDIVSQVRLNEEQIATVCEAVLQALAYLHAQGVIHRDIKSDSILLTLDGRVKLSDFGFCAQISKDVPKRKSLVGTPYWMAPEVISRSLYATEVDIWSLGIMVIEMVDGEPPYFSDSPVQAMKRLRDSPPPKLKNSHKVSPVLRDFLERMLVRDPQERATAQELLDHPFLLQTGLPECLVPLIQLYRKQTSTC
# T8 sequence (P06213 28-1382): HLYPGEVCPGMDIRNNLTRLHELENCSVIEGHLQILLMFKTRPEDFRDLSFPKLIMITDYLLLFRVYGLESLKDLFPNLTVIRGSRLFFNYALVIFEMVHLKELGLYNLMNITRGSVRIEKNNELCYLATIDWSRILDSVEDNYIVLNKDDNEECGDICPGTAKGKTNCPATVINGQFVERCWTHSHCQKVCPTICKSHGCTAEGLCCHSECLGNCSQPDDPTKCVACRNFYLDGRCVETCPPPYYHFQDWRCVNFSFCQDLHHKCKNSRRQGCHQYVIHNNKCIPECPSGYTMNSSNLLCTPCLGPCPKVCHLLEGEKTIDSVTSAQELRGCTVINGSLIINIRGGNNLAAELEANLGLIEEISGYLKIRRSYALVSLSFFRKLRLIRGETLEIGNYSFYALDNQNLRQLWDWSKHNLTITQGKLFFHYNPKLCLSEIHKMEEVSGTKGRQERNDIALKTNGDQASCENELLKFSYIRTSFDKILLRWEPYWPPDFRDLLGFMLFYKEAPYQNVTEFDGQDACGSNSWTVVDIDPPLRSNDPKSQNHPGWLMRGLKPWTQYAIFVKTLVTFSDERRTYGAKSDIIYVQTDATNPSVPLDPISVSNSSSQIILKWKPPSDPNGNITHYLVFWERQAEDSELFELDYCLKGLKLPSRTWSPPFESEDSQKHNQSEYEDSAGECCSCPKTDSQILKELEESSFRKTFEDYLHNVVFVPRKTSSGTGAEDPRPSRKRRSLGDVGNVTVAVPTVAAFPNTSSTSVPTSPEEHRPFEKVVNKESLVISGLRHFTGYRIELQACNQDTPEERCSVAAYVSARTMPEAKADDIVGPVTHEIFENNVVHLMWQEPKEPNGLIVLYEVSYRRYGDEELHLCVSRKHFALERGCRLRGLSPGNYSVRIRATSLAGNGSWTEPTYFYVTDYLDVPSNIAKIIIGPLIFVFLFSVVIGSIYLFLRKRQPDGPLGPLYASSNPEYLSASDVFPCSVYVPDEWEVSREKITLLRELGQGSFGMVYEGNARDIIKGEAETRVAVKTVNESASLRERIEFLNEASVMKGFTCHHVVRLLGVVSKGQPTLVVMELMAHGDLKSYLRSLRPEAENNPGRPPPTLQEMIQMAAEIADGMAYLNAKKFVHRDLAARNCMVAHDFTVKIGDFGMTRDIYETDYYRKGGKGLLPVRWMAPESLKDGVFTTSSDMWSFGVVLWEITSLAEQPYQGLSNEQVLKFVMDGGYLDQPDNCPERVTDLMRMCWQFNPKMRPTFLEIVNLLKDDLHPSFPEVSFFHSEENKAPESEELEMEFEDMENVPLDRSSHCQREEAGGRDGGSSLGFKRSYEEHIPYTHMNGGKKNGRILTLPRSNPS
# T5 sequence (P45983 whole entry): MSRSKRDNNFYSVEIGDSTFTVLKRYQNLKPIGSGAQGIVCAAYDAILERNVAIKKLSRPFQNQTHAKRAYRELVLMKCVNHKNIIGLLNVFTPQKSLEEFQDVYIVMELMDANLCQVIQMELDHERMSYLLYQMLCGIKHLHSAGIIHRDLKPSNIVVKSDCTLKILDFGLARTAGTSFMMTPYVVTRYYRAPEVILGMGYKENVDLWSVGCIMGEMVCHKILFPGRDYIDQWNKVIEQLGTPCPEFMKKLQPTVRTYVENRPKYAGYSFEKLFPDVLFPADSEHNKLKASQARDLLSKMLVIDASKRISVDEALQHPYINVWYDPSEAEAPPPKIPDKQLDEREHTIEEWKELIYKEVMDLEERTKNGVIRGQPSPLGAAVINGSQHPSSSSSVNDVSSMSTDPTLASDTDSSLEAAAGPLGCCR
# T7 sequence (O96017 whole entry): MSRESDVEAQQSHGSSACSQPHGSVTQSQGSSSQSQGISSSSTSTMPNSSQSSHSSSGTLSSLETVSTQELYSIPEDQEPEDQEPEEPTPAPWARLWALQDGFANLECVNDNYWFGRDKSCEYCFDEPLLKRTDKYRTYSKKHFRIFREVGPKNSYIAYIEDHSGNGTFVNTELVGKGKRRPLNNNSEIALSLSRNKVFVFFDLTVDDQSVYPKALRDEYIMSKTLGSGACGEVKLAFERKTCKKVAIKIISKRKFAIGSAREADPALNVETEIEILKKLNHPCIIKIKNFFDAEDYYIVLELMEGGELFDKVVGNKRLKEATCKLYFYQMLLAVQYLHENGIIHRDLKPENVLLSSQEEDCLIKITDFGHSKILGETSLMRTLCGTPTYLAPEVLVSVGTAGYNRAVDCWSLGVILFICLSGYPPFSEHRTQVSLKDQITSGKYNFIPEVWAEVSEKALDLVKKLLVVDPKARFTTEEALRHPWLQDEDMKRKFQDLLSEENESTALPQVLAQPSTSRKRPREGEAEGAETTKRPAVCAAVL
# T2 sequence (Q9P286 whole entry): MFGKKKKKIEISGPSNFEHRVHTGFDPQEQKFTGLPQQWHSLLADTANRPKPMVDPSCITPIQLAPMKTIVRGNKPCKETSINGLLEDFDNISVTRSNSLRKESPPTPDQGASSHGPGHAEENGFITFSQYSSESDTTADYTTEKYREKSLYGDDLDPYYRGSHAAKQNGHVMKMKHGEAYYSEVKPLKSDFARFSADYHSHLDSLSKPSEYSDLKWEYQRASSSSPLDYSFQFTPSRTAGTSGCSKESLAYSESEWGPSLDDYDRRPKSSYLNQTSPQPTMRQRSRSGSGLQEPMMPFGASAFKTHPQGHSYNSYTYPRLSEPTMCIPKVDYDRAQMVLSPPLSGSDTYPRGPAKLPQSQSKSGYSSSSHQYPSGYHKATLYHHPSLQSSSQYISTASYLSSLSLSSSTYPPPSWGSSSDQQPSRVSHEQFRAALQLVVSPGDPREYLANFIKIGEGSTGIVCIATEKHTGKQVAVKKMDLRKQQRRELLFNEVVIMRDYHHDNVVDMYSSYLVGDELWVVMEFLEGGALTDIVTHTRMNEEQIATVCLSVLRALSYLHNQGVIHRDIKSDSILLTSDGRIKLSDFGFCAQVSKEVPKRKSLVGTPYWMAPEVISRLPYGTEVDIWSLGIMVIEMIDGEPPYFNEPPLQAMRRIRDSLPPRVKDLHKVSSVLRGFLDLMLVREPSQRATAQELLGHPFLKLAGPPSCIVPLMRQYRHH
% inhibition of activity (ABL1) [%],% inhibition of activity (PAK7 (KIAA 1264)) [%],% inhibition of activity (PDGFRB (PDGFR beta)) [%],% inhibition of activity (PRKACA (PKA)) [%],% inhibition of activity (MAPK8 (JNK1)) [%],% inhibition of activity (CSNK1G2 (CK1 gamma 2)) [%],% inhibition of activity (CHEK2 (CHK2)) [%],% inhibition of activity (INSR) [%],% inhibition of activity (SYK) [%],% inhibition of activity (MET (cMet)) [%],% inhibition of activity (PAK6) [%],% inhibition of activity (P1K3CA (p110 gamma)) [%],% inhibition of activity (SPHK1) [%],% inhibition of activity (MAP2K1 (MEK1)) [%],% inhibition of activity (JAK3) [%],% inhibition of activity (FRAP1 (mTOR)) [%],% inhibition of activity (PTK1 (FAK)) [%],% inhibition of activity (Pak4) [%],% inhibition of activity (G3K3B (G3K3 beta)) [%],% inhibition of activity (FGFR4) [%],SMILES
18,9,83,1,79,3,7,0,4,36,27,0,0,27,0,0,9,6,0,9,CCn1c(=O)c(-c2ccc(-c3cncc(C)n3)cc2Cl)cc2cnc(NCCC3CCN(C)CC3)nc21 [Frax1036]
62,99,14,100,9,9,99,7,32,19,98,0,4,39,10,0,38,99,77,11,"Cc1nc(Nc2[nH]nc3c2CN(C(=O)N[C@H](CN(C)C)c2ccccc2)C3(C)C)c2sccc2n1 [PF3758309, reference compound]"

SMILES,% inhibition of activity (ABL1) [%],% inhibition of activity (PAK7 (KIAA 1264)) [%],% inhibition of activity (PDGFRB (PDGFR beta)) [%],% inhibition of activity (PRKACA (PKA)) [%],% inhibition of activity (MAPK8 (JNK1)) [%],% inhibition of activity (CSNK1G2 (CK1 gamma 2)) [%],% inhibition of activity (CHEK2 (CHK2)) [%],% inhibition of activity (INSR) [%],% inhibition of activity (SYK) [%],% inhibition of activity (MET (cMet)) [%],% inhibition of activity (PAK6) [%],% inhibition of activity (P1K3CA (p110 gamma)) [%],% inhibition of activity (SPHK1) [%],% inhibition of activity (MAP2K1 (MEK1)) [%],% inhibition of activity (JAK3) [%],% inhibition of activity (FRAP1 (mTOR)) [%],% inhibition of activity (PTK1 (FAK)) [%],% inhibition of activity (Pak4) [%],% inhibition of activity (G3K3B (G3K3 beta)) [%],% inhibition of activity (FGFR4) [%]
CCn1c(=O)c(-c2ccc(-c3noc(C)n3)cc2Cl)cc2cnc(Nc3ccc(C4CCN(C)CC4)cc3)nc21 [Frax716],93,17,82,7,30,3,17,14,21,38,17,0,−3,48,3,1,22,7,14,20
